For 26 molecules, IC50 results are on record in patent publication US10414763B2 (CANCER RESEARCH TECHNOLOGY LIMITED, priority 2014, dated 2019).

Usually IC50 stands for the concentration that inhibits the measured activity by half.

Each structure is given as a SMILES string.

For this assay, the target named is T1, full-length human PKCι (Homo sapiens, UniProt P41743).
T1 construct: Recombinant, full-length human PKCι expressed in Sf21 insect cells is also commercially available; purchased EMD Millipore; host or cells: Sf21 insect cells (baculovirus)
T1 sequence (P41743 1-596): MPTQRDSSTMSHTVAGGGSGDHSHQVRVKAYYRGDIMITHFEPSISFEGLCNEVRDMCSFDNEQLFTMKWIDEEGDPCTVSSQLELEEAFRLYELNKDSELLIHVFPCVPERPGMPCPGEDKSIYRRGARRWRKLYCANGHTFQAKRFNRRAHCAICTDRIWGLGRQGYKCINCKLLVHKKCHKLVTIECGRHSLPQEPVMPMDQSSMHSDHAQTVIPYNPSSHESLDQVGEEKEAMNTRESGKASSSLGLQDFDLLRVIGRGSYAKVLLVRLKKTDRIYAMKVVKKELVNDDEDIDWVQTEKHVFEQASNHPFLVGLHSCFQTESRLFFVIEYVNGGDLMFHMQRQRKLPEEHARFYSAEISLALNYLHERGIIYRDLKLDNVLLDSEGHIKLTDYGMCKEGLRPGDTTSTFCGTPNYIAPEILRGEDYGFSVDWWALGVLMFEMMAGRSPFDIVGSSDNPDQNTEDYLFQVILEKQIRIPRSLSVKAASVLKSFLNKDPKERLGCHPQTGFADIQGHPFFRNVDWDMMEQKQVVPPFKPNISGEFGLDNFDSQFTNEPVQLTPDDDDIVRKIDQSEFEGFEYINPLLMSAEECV
The experiment in a line: PKCι IC50 IMAP fluorescence polarisation assay, full-length enzyme, 150 μM ATP. It is filed as biochemical. The following applies: read-out: IC50 in IMAP assay against full length PKCi at 150 μM ATP. In outline: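 IMAP fluorescence polarisation kinase assay: 15 pM baculovirus-expressed human PKCiota with 100 nM FAM-pseudosubstrate peptide and 150 μM ATP, 1 h at 25 °C. IMAP detection reagent then 2 h at 25 °C before FP measurement. Inhibition referenced to no-compound and no-enzyme controls for IC50 fitting.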
Take `CC1(C)CNCCC1Nc1nc(-c2ccnc(Nc3ncccc3F)c2)nc2cncc(C3CC3)c12` (centres unmarked) [Example 49, {5-Cyclopropyl-2-[2-(3-fluoro-pyridin-2-ylamino)-pyridin-4-yl]-pyrido[3,4-d]pyrimidin-4-yl}-(3,3-dimethyl-piperidin-4-yl)-amine]: the IC50 was below 100 nM.

Take `CC1(C)CNCCC1Nc1nc(-c2ccnc(Nc3cc(F)ccn3)c2)nc2cncc(C3CC3)c12` (centres unmarked) [Example 50, {5-Cyclopropyl-2-[2-(4-fluoro-pyridin-2-ylamino)-pyridin-4-yl]-pyrido[3,4-d]pyrimidin-4-yl}-(3,3-dimethyl-piperidin-4-yl)-amine]: the half-inhibitory concentration (IC50) is below 100 nM.

In the case of `CC1(C)CNCCC1Nc1nc(-c2ccnc(Nc3cc(C(F)(F)F)ccn3)c2)nc2cncc(C3CC3)c12` (centres unmarked) [Example 51, {5-Cyclopropyl-2-[2-(4-trifluoromethyl-pyridin-2-ylamino)-pyridin-4-yl]-pyrido[3,4-d]pyrimidin-4-yl}-(3,3-dimethyl-piperidin-4-yl)-amine], the IC50 is below 100 nM.

`CC(C)(C)c1csc(Nc2cc(-c3nc(N4CCNCC4)c4c(C5CC5)cncc4n3)ccn2)n1` [Example 52, (4-tert-Butyl-thiazol-2-yl)-[4-(5-cyclopropyl-4-pipcrazin-1-yl-pyrido[3,4-d]pyrimidin-2-yl)-pyridin-2-yl]-amine]: the IC50 was 100 to 1000 nM.

For the molecule `CN(c1nc(-c2ccnc(Nc3nc(C4CC4)cs3)c2)nc2cncc(C3CC3)c12)C1CCNCC1(C)C` (centres unmarked) [Example 53, {5-Cyclopropyl-2-[2-(4-cyclopropyl-thiazol-2-ylamino)-pyridin-4-yl]-pyrido[3,4-d]pyrimidin-4-yl}-(3,3-dimethyl-piperidin-4-yl)-methyl-amine], the IC50 was in the range of 100 to 1000 nM.

As for `CN(C)CC#Cc1cc2c(-c3nc(N4CCNCC4)c4c(C5CCC5)cncc4n3)ccnc2[nH]1` [Example 55, {3-[4-(5-Cyclobutyl-4-piperazin-1-yl-pyrido[3,4-d]pyrimidin-2-yl)-1H-pyrrolo[2,3-b]pyridin-2-yl]-prop-2-ynyl}-dimethyl-amine], the IC50 is below 100 nM.

For `c1cncc(-c2cc3c(-c4nc(N5CCNCC5)c5c(C6CC6)cncc5n4)ccnc3[nH]2)c1` [Example 58, 5-Cyclopropyl-4-piperazin-1-yl-2-(2-pyridin-3-yl-1H-pyrrolo[2,3-b]pyridin-4-yl)-pyrido[3,4-d]pyrimidine], the IC50 is below 100 nM.

Consider `c1ccc2c(c1)[nH]c1nccc(-c3nc(N4CCC5NCCC54)c4c(C5CCC5)cncc4n3)c12` (centres unmarked) [Example 59, 4-[5-Cyclobutyl-4-(hexahydro-pyrrolo[3,2-b]pyrrol-1-yl)-pyrido[3,4-d]pyrimidin-2-yl]-9H-pyrido[2,3-b]indole], for which the IC50 was below 100 nM.

For the molecule `NC1CCC(Nc2nc(-c3ccnc4[nH]c5ccccc5c34)nc3cncc(C4CCC4)c23)C1` (centres unmarked) [Example 60, N-[5-Cyclobutyl-2-(9H-pyrido[2,3-b]indol-4-yl)-pyrido[3,4-d]pyrimidin-4-yl]-cyclopentane-1,3-diamine], the IC50 was below 100 nM.

As to `CN(c1nc(-c2ccnc3[nH]c(-c4cccnc4)cc23)nc2cncc(C3CC3)c12)C1CCNCC1(C)C` (centres unmarked) [Example 61, [5-Cyclopropyl-2-(2-pyridin-3-yl-1H-pyrrolo[2,3-b]pyridin-4-yl)-pyrido[3,4-d]pyrimidin-4-yl]-(3,3-dimethyl-piperidin-4-yl)-methyl-amine], the IC50 is below 100 nM.

For the molecule `O=C(NC1CCCCC1)c1cc2c(-c3nc(N4CCNCC4)c4c(C5CC5)cncc4n3)ccnc2[nH]1` [Example 62, 4-(5-Cyclopropyl-4-piperazin-1-yl-pyrido[3,4-d]pyrimidin-2-yl)-1H-pyrrolo[2,3-b]pyridine-2-carboxylic acid cyclohexylamide], the IC50 is below 100 nM.

Take `FC(F)(F)c1cc2c(-c3nc(N4CCCC5NCCCC54)c4c(C5CC5)cncc4n3)ccnc2[nH]1` (centres unmarked) [Example 64, 5-Cyclopropyl-4-(octahydro-[1,5]naphthyridin-1-yl)-2-(2-trifluoromethyl-1H-pyrrolo[2,3-b]pyridin-4-yl)-pyrido[3,4-d]pyrimidine]: the IC50 was below 100 nM.

Take `O=S(=O)(Nc1cc(-c2nc(N3CCNCC3)c3c(C4CC4)cncc3n2)ccn1)c1ccc(F)cc1` [Example 65, N-[4-(5-Cyclopropyl-4-piperazin-1-yl-pyrido[3,4-d]pyrimidin-2-yl)-pyridin-2-yl]-4-fluoro-benzenesulfonamide]: the IC50 was 100 to 1000 nM.

Take `CN(c1nc(-c2ccnc3[nH]c(C(=O)NC4CCCCC4)cc23)nc2cncc(C3CC3)c12)C1CCNCC1(C)C` (centres unmarked) [Example 66, 4-{5-Cyclopropyl-4-[(3,3-dimethyl-piperidin-4-yl)-methyl-amino]-pyrido[3,4-d]pyrimidin-2-yl}-1H-pyrrolo[2,3-b]pyridine-2-carboxylic acid cyclohexylamide]: the IC50 is below 100 nM.

Regarding `CC1(C)CNCCC1Nc1nc(-c2ccnc(Nc3ccc(F)cn3)c2)nc2cncc(C3CCC3)c12` (centres unmarked) [Example 67, {5-Cyclobutyl-2-[2-(5-fluoro-pyridin-2-ylamino)-pyridin-4-yl]-pyrido[3,4-d]pyrimidin-4-yl}-(3,3-dimethyl-piperidin-4-yl)-amine], the IC50 is below 100 nM.

In the case of `CC1(C)CNCCC1Nc1nc(-c2ccnc(Nc3ncc(F)cc3F)c2)nc2cncc(C3CCC3)c12` (centres unmarked) [Example 68, {5-Cyclobutyl-2-[2-(3,5-difluoro-pyridin-2-ylamino)-pyridin-4-yl]-pyrido[3,4-d]pyrimidin-4-yl}-(3,3-dimethyl-piperidin-4-yl)-amine], the IC50 is below 100 nM.

Consider `CC1(C)CNCCC1Nc1nc(-c2ccnc(Nc3ncccc3F)c2)nc2cncc(C3CCC3)c12` (centres unmarked) [Example 70, {5-Cyclobutyl-2-[2-(3-fluoro-pyridin-2-ylamino)-pyridin-4-yl]-pyrido[3,4-d]pyrimidin-4-yl}-(3,3-dimethyl-piperidin-4-yl)-amine], for which the IC50 is below 100 nM.

For `CC1(C)CNCCC1Nc1nc(-c2ccnc(Nc3nc(F)c(F)cc3F)c2)nc2cncc(C3CCC3)c12` (centres unmarked) [Example 71, {5-Cyclobutyl-2-[2-(3,5,6-trifluoro-pyridin-2-ylamino)-pyridin-4-yl]-pyrido[3,4-d]pyrimidin-4-yl}-(3,3-dimethyl-piperidin-4-yl)-amine], the IC50 was below 100 nM.

For `CC(C)(C)c1csc(Nc2cc(-c3nc(NC4CCNCC4(C)C)c4c(C5CCC5)cncc4n3)ccn2)n1` (centres unmarked) [Example 72, {2-[2-(4-tert-Butyl-thiazol-2-ylamino)-pyridin-4-yl]-5-cyclobutyl-pyrido[3,4-d]pyrimidin-4-yl}-(3,3-dimethyl-piperidin-4-yl)-amine], the IC50 fell in the range of 100 to 1000 nM.

`OC1CNCCCC1Nc1nc(-c2ccnc3[nH]c4ccccc4c23)nc2cncc(C3CCC3)c12` (centres unmarked) [Example 73, 4-[5-Cyclobutyl-2-(9H-pyrido[2,3-b]indol-4-yl)-pyrido[3,4-d]pyrimidin-4-ylamino]-azepan-3-ol]: the IC50 was below 100 nM.

For the molecule `CN(c1nc(-c2ccnc3[nH]c4ccccc4c23)nc2cncc(C3CCC3)c12)C1CC(N)C1` (centres unmarked) [Example 74, N-[5-Cyclobutyl-2-(9H-pyrido[2,3-b]indol-4-yl)-pyrido[3,4-d]pyrimidin-4-yl]-N-methyl-cyclobutane-1,3-diamine], the IC50 was below 100 nM.

With `CN(c1nc(-c2ccnc3[nH]c4ccccc4c23)nc2cncc(C3CCC3)c12)C1CC(N)C1` (centres unmarked) [Example 75, N-[5-Cyclobutyl-2-(9H-pyrido[2,3-b]indol-4-yl)-pyrido[3,4-d]pyrimidin-4-yl]-N-methyl-cyclobutane-1,3-diamine], the IC50 is below 100 nM.

`CN(c1nc(-c2ccnc3[nH]c4ccccc4c23)nc2cncc(C3CCC3)c12)C1CCC(N)C1` (centres unmarked) [Example 78, N-[5-Cyclobutyl-2-(9H-pyrido[2,3-b]indol-4-yl)-pyrido[3,4-d]pyrimidin-4-yl]-N-methyl-cyclopentane-1,3-diamine]: the IC50 was below 100 nM.

As for `CNC(=O)c1cc2c(-c3nc(N4CCNCC4)c4c(C5CC5)cncc4n3)ccnc2[nH]1` [Example 79, 4-(5-Cyclopropyl-4-piperazin-1-yl-pyrido[3,4-d]pyrimidin-2-yl)-1H-pyrrolo[2,3-b]pyridine-2-carboxylic acid methylamide], the IC50 was below 100 nM.

Take `CC1(C)CNCCC1Nc1nc(-c2ccnc(Nc3ccc4ccccc4n3)c2)nc2cncc(C3CCC3)c12` (centres unmarked) [Example 86, {5-Cyclobutyl-2-[2-(quinolin-2-ylamino)-pyridin-4-yl]-pyrido[3,4-d]pyrimidin-4-yl}-(3,3-dimethyl-piperidin-4-yl)-amine]: the IC50 is below 100 nM.

On to `CC1(C)CNCCC1Nc1nc(-c2ccnc(Nc3nc(F)cc(F)c3F)c2)nc2cncc(C3CCC3)c12` (centres unmarked) [Example 87, {5-Cyclobutyl-2-[2-(3,4,6-trifluoro-pyridin-2-ylamino)-pyridin-4-yl]-pyrido[3,4-d]pyrimidin-4-yl}-(3,3-dimethyl-piperidin-4-yl)-amine], for which the IC50 is below 100 nM.
